In PubChem BioAssay AID624344 (Sanford-Burnham Center for Chemical Genomics, 2012):
The source made the active and inactive calls. The rule behind the calls is not given here.

Tests used:
[1] = inhibitors of PAF-induced NFkB signaling in CF airway cells, dose response, cell-based, uHTS hits, panel, cytotoxicity readout (AID 624344); conditions: CF bronchial epithelial cells, PAF-induced NFkB reporter inhibition; with PAF, mean of runs
[2] = tested on: Cytotoxicity; assay: as above; conditions: CF bronchial epithelial cells, mean of runs

SMILES	IC50 [1]	IC50 [2]
C[C@@H]1C[C@@H]([C@H](O)CC2CC(=O)NC(=O)C2)C(=O)[C@@H](C)C1	0.46 µM	11.6 µM
CCCCCCc1cc2cc(S(=O)(=O)c3ccc(F)cc3)c(=O)oc2cc1O	4.48 µM	4.76 µM
CC1=C(/C=C/C(C)=C/C=C/C(C)=C\C(=O)O)C(C)(C)CCC1	0.64 µM	> 79 µM (inactive)
O=C(NCCCSc1ccccc1)c1cc(Br)ccc1O	4.8 µM	3.05 µM
CC(=O)Oc1ccc(N(C(C)=O)S(=O)(=O)c2cccs2)c2ccccc12	6.45 µM	11.7 µM
CC(=O)Nc1nc(C)c(-c2csc(Nc3cccc(C(C)=O)c3)n2)s1	0.538 µM	40.1 µM
Cc1nc2c(O)c3c(c(O)c2nc1C)C1C=CC3CC1	5.67 µM	7.03 µM
C=CC(=O)Nc1cccc(Oc2ncnc3[nH]cc(-c4cnc5ccccc5c4)c23)c1	1.35 µM	54.8 µM (inactive)
Cn1c(=O)c2c(nc(Oc3ccc4ccccc4c3)n2C)n(C)c1=O	9.64 µM	> 79 µM (inactive)
COc1cc2cncc(Cc3ccc(Cl)cc3)c2cc1OC	2.87 µM	20.9 µM
NC(=O)N/N=C/c1c(Sc2nnnn2-c2ccccc2)nc2ccccn2c1=O	0.653 µM	6.87 µM
CC(C)CNC(=O)c1coc(=O)c(Br)c1	4.35 µM	8.73 µM
O=C(Nc1ccc([N+](=O)[O-])cc1)Nc1ccc(Cl)cc1F	2.92 µM	2.19 µM
CN(Cc1ccco1)c1ncnc2ccc(-c3ccoc3)cc12	8.08 µM	50.9 µM (inactive)
COc1ccc(OC)c(-c2nnc3n2N=C(c2ccc(OC)c(OC4CCOC4)c2)CS3)c1 (centres undefined)	1.71 µM	> 79 µM (inactive)
Cc1ccc(NC(=O)Nc2cccc([N+](=O)[O-])c2)cc1F	6.2 µM	3.58 µM
COc1ccc(N(CCCN2C(=O)c3cccc4cccc(c34)C2=O)C(=O)c2ccncc2)cc1	inactive	12.9 µM
Cc1ccsc1CN(C)c1ncnc2ccc(-c3ccoc3)cc12	0.376 µM	47 µM
O=C1NC(c2cccc3ccccc23)Nc2ccc(Cl)cc21 (centres undefined)	8.66 µM	> 79 µM (inactive)
CC(=O)Oc1c(Br)cc(N(C(C)=O)S(=O)(=O)c2ccccc2)c2ccccc12	7.32 µM	9.15 µM
CCC(=NCCc1c(C)[nH]c2ccc(C)cc12)C1=C(O)CC(c2ccccc2)CC1=O (centres undefined)	7.89 µM	> 79 µM (inactive)

SMILES	IC50 [1]	IC50 [2]
O=C(/C=C/c1cccs1)Nc1cccc(NC(=O)/C=C/c2cccs2)n1	5.98 µM	1.57 µM
COc1cccc(-c2ccc3ncnc(NCc4cc(C)cs4)c3c2)c1	3.86 µM	26.9 µM
Cc1ccc(S(=O)(=O)CC(CN2CCCCC2)N2CCCCC2)cc1 (centres undefined)	6.85 µM	33.3 µM
CCCNC(=O)COC(=O)c1ccccc1C(=O)c1ccc(Cl)c([N+](=O)[O-])c1	1.8 µM	7.71 µM
Cc1ccc(NC(=O)CSc2ncnc3ccccc23)cc1S(=O)(=O)N1CCOCC1	4.14 µM	34.6 µM
COc1ccc(C2=Nn3c(nnc3-c3ccncc3)SC2)cc1	2.72 µM	40 µM
Cc1ccc(CNc2ncnc3ccc(-c4ccc(CO)o4)cc23)o1	0.898 µM	3.77 µM
CC(=O)c1ccc(NC(=O)Nc2ccc3c(c2)N(C)C(=O)CS3)cc1	5.14 µM	29.2 µM
CCOc1ccc(-n2c(C)c(C(C)=O)c3cc(O)ccc32)cc1	1.87 µM	> 79 µM (inactive)
C=C1C(=O)OC2CC1C(O)CC(C)=CCCC(C)=CC(O)CC2C (centres undefined)	0.537 µM	1.09 µM
CN(C)C(=O)c1cccc(-c2cnc3sc(NCc4ccc5c(c4)OCO5)nn23)c1	1.69 µM	46.5 µM
CC(=O)c1ccc(-c2cnc3c(NC=O)cc(-c4ccc(C(=O)NC5CC5)cc4)cn23)cc1	4.25 µM	27.4 µM
Cc1ccc(Nc2nc3nonc3[nH]c2=O)cc1Cl	4.7 µM	15.1 µM
c1cncc(-c2ccc3ncnc(NCc4ccc5c(c4)OCO5)c3c2)c1	6.5 µM	6.65 µM
Cc1cccc(NC(=O)c2cc(-c3ccc(C)s3)nc3ccccc23)n1	5.26 µM	42.4 µM
CCn1c(=O)c2c(cnn2C)c2ccccc21	2.18 µM	46.2 µM
COc1cc(C2c3cc4c(cc3C3OC(=O)C2C3CO)OCO4)cc(OC)c1OC (centres undefined)	inactive	> 79 µM (inactive)
O=C(NCc1ccccc1)C1=C[C@H](c2csc3ccccc23)C[C@H](OCc2ccc(CO)cc2)O1	inactive	12.8 µM
N#Cc1cccc(NC(=O)COC(=O)c2ccccc2C(=O)c2ccc(Cl)c([N+](=O)[O-])c2)c1	2.66 µM	9.79 µM
O=C1C(=Cc2ccccc2[N+](=O)[O-])Cc2ccccc21	6.36 µM	8.65 µM
O=C(CSc1nc(C2CC2)nc2ccccc12)Nc1cccc(O)c1	2.58 µM	42.8 µM

SMILES	IC50 [1]	IC50 [2]
CC(=O)c1c(O)cc2c3c1OC(C)(C)C1CCC(C)(CC31)O2 (centres undefined)	2.73 µM	53.5 µM (inactive)
C=CCn1c(Oc2ccccc2F)nc2c1c(=O)n(C)c(=O)n2C	5.7 µM	> 79 µM (inactive)
N#Cc1ccsc1NC(=O)c1ccc(Cl)c([N+](=O)[O-])c1	4.95 µM	18.4 µM
CCOC(=O)Oc1c(OC)cc(C(=O)O[C@@H]2C[C@@H]3CN4CCc5c([nH]c6cc(OC)ccc56)[C@H]4C[C@@H]3[C@H](C(=O)OC)[C@H]2OC)cc1OC	4.91 µM	58.8 µM (inactive)
CC(C)(C)OC(=O)NCC(=O)Oc1cc2oc(=O)cc(-c3ccccc3)c2cc1Cl	1.2 µM	15.3 µM
Cc1csc(CNc2ncnc3ccc(-c4ccoc4)cc23)c1	< 0.3 µM	13.8 µM
COc1cccc(CN(C)C(=O)C(CCSC)NS(=O)(=O)c2ccc3c(c2)OCCO3)c1OC (centres undefined)	3.4 µM	13.3 µM
Cc1c(C(=O)OCC(C)C)[nH]c2c1C(=O)CC(c1ccco1)C2 (centres undefined)	inactive	38.3 µM
CC(C)(CO)CNc1ccn2nccc2n1	5.29 µM	76.7 µM (inactive)
Nc1cc2c(cc1Br)-c1ccccc1C2=NO	11.9 µM	60.6 µM (inactive)
CCCCCCc1cc2cc(C(=O)Nc3ccccc3OC)c(=O)oc2cc1O	inactive	49.4 µM
Cc1cc(C)nc(Sc2ncnc(N)c2[N+](=O)[O-])n1	5.09 µM	13.5 µM
COc1ccc(-c2cc(C(F)(F)F)nc(S(=O)(=O)CCCC(=O)Nc3cccnc3Cl)n2)cc1OC	1.44 µM	1.32 µM
COc1ccc(N=Cc2cc3c(cc2O)OC(N)=C(C#N)C3c2ccccc2)cc1 (centres undefined)	3.4 µM	59.8 µM (inactive)
Cc1[nH]nc2ncc(C(=O)c3ccccc3O)cc12	1.68 µM	24.3 µM
Cc1ncc(CO)c2c1Oc1nc(-c3ccccc3F)nc(SCC(=O)N(C)c3ccccc3)c1C2	4.17 µM	11.3 µM
COc1ccc(/C=C/C(=O)c2cc(F)ccc2OC(=O)c2ccccc2C)cc1OC	inactive	62.5 µM (inactive)
Cc1ccccc1S(=O)(=O)Cc1ccc(C(=O)N2CCN(c3cccc(C)c3C)CC2)o1	11 µM	25 µM
CCOCC(=O)NC1CCc2cc(OC(=O)COCC)c(OC)c(OC)c2-c2ccc(SC)c(=O)cc21 (centres undefined)	inactive	44.5 µM
COc1cc(C(=O)c2cc3c(cc2C)OCO3)cc(OC)c1OC	> 79 µM (inactive)	44.5 µM
CCOC(=O)c1c(-c2ccc(C)cc2)csc1NC(=O)c1ccc(N2C(=O)CCC2=O)cc1	inactive	61 µM (inactive)

SMILES	IC50 [1]	IC50 [2]
Cc1cccc(CNc2ncnc3ccc(-c4ccoc4)cc23)c1	< 0.15 µM	6.04 µM
Cc1ccnc(NC(=O)CSc2cc(=O)n(C)c3ccccc23)c1	7.95 µM	39.4 µM
CCOc1ccccc1N1CCN(C(=O)c2cc(-c3cc(OC)ccc3OC)nc3ccccc23)CC1	4.12 µM	12 µM
CCCCn1nnnc1C(CCc1ccccc1)N1CCC(n2c(=O)[nH]c3ccccc32)CC1 (centres undefined)	5.91 µM	12 µM
Brc1ccc2ncnc(NCc3ccccc3)c2c1	0.506 µM	6.15 µM
Cc1c(Cl)cccc1NC(=O)COC(=O)c1c2c(nc3ccccc13)CCN(Cc1ccccc1)C2	6.85 µM	13.5 µM
CC1(Cc2ccc(F)cc2)C(=O)Nc2ccc(-c3cccnc3)cc21 (centres undefined)	2.54 µM	18.8 µM
CCOc1ccccc1NC(=O)c1nc(S(=O)(=O)Cc2ccccc2)ncc1Cl	1.83 µM	2.27 µM
CC(C)C[C@@H](CN1CCC[C@@H]1CN1C(=S)NC[C@@H]1Cc1ccc(O)cc1)N1C[C@H](Cc2ccc(O)cc2)N(CC2CCCCC2)C1=S	17 µM	18.8 µM
CC(=O)c1c(C)n(-c2ccccc2)c2ccc(O)cc12	5.58 µM	> 79 µM (inactive)
COc1cccc(-c2ccc3ncnc(NCc4cccc(C)c4)c3c2)c1	5.66 µM	13 µM
CCN1CCN(Cc2ccc(NC(=O)c3ccc(C)c(NC(=O)c4cccc5[nH]ccc45)c3)cc2C(F)(F)F)CC1	7.33 µM	47.7 µM
COC(=O)c1ccc2c(c1)C(C)(C)C(/C=C/c1ccccc1O)=[N+]2C	5.88 µM	35.4 µM
COc1ccc(-c2cc(=O)oc3c(C)c(O)ccc23)cc1	0.867 µM	67.5 µM (inactive)
CCOc1ccc(NCc2cc3c(C(C)(C)C)nn(-c4ccccc4)c3[nH]c2=O)cc1	7.26 µM	27.4 µM
Cc1cc(C)c2nc(C(F)(F)F)c(C#N)c(N)c2c1	0.827 µM	24.6 µM
COc1cccc(-c2ccc3ncnc(NCc4ccc5c(c4)OCO5)c3c2)c1	1.61 µM	18.1 µM
Cn1c(Oc2ccc(Cl)cc2)c(C=O)c2ccccc21	3.96 µM	13.5 µM
O=S(=O)(Nc1nc2ccccc2nc1N1CCN(c2ccccc2F)CC1)c1ccc(Cl)cc1	5.66 µM	10.5 µM
